Experimental data published in US20220362232A1, “TOPICAL COMPOSITIONS COMPRISING A MACROLIDE IMMUNOSUPPRESSANT” (BAUSCH HEALTH IRELAND LIMITED, priority 2020, published 2022).

Assays:
[1] = Solubility and stability in alkyl diesters of aliphatic dicarboxylic acids; type: physicochemical
[2] = cited from earlier work

Row | Compound | Solubility and stability in alkyl diesters of aliphatic dicarboxylic acids [1] | Solubility in methanol and ethanol ([2]; methanol and ethanol) | Solubility in water [2] | Solubility in benzyl alcohol, chloroform, acetone, and acetonitrile [2]
1 | CC[C@@H]1/C=C(\C)C[C@H](C)C[C@H](OC)[C@H]2O[C@@](O)(C(=O)C(=O)N3CCCC[C@H]3C(=O)O[C@H](/C(C)=C/[C@@H]3CC[C@H](Cl)[C@H](OC)C3)[C@H](C)[C@@H](O)CC1=O)[C@H](C)C[C@@H]2OC [Pimecrolimus] | particularly soluble and stable | soluble | insoluble | –
2 | CO[C@H]1C[C@@H]2CC[C@@H](C)[C@@](O)(O2)C(=O)C(=O)N2CCCC[C@H]2C(=O)O[C@H]([C@H](C)C[C@@H]2CC[C@@H](O)[C@H](OC)C2)CC(=O)[C@H](C)/C=C(\C)[C@@H](O)[C@@H](OC)C(=O)[C@H](C)C[C@H](C)/C=C/C=C/C=C/1C [Sirolimus] | particularly soluble and stable | – | insoluble | soluble
3 | C=CC[C@@H]1/C=C(\C)C[C@H](C)C[C@H](OC)[C@H]2O[C@@](O)(C(=O)C(=O)N3CCCC[C@H]3C(=O)O[C@H](/C(C)=C/[C@@H]3CC[C@@H](O)[C@H](OC)C3)[C@H](C)[C@@H](O)CC1=O)[C@H](C)C[C@@H]2OC [Tacrolimus] | particularly soluble and stable | – | insoluble | soluble
